The experiment concerns STAT5 Y694 phosphorylation. In words: HTRF experiment: STAT5 Y694 phosphorylation in Hela cells stimulated with human interferon beta. The class given is cell-based. The following applies: 2 hours pretreatment, 10 nM human interferon beta 30 minutes.

On to `O=C(Cc1ccc(C(F)(F)F)cc1)N1CCC(n2c(=O)[nH]c3ccccc32)CC1` [Example X8, 1-(1-(2-(4-(trifluoromethyl)phenyl)acetyl)piperidin-4-yl)-1H-benzo[d]imidazole-2(3H)-one], for which the “Example of Effect 3: Inhibiting Ratio@10 μM (HTRF Experiment)” value stood at 22.60%.

Source of the values: US20230099441A1, “HETEROCYCLIC COMPOUND, APPLICATION THEREOF, AND COMPOSITION CONTAINING SAME” (GenEros Biopharma Ltd., priority 2019, published 2023).
